Experimental data reported in PubChem BioAssay (NCI).
Where “and” joins values, the source holds several entries; their conditions need not be identical. Equal entries are not always repeated.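 Compound exposure: 48 hours, 5 concentrations, 96-well plates. GI50 is the concentration that inhibits growth by half. TGI marks complete inhibition of growth.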

Tests used:
Assay in all cases: DTP human tumour cell line panel, 48 h
[1] = tested on: ACHN renal
[2] = tested on: HCC-2998 colon
[3] = tested on: MOLT-4 leukemia
[4] = tested on: HS 578T breast
[5] = tested on: SW-620 colon
[6] = tested on: UO-31 renal
[7] = tested on: LOX IMVI melanoma
[8] = tested on: CCRF-CEM leukemia
[9] = tested on: DU-145 prostate
[10] = tested on: RPMI-8226 leukemia

Compound	TGI [1] [µM]	TGI [2] [µM]	TGI [3]	TGI [4] [µM]	TGI [5]	TGI [6] [µM]	TGI [7]	TGI [8]	TGI [9]	TGI [10]	GI50 [10] [µM]	GI50 [4] [µM]	GI50 [5] [µM]	GI50 [6] [µM]	GI50 [8] [µM]	GI50 [1] [µM]	GI50 [2] [µM]	GI50 [3] [µM]	GI50 [7] [µM]	GI50 [9] [µM]
CC(=O)N1c2ccccc2C23CCN(C)CC4C(C)OCC(C4CC2=O)C13 (stereo not drawn)	> 100	> 100	> 100 µM	> 100	> 100 µM	> 100	> 100 µM	> 100 µM	> 100 µM	–	–	–	–	–	–	–	–	–	–	–
O=c1cccccc1NCCOCCNc1cccccc1=O	> 100	> 100	> 100 µM	–	> 100 µM	> 100	> 100 µM	> 100 µM	–	> 100 µM	–	–	–	–	–	–	–	–	–	–
Oc1ccccc1-c1nn(CNc2cccc(Cl)c2)c(=S)o1	–	–	> 100 µM	> 100	> 100 µM	> 100	–	27.3 µM	–	38.5 µM	15.3	69.1	27.2	> 100	3.63	–	–	–	–	–
COc1ccc(C(=O)C(c2ccc(OC)cc2)C2(O)C(=O)Nc3ccccc32)cc1 (stereo not drawn)	> 100	–	> 100 µM	–	> 100 µM	> 100	> 100 µM	> 100 µM	–	> 100 µM	–	–	–	–	–	–	–	–	–	–
O=c1/c(=C/c2cccc([N+](=O)[O-])c2)sc2nc3ccccc3n12	> 100	> 100	–	–	> 100 µM	> 100	> 100 µM	> 100 µM	–	–	–	–	–	–	–	–	–	–	–	–
Cc1cc(O)cc2oc(=O)c3c(O)cc(O)cc3c12	71.1	40.8	31.2 µM	–	49.9 µM	> 100	48.1 µM	> 100 µM	–	–	–	–	–	–	–	–	–	–	–	–
COC(=O)C1=C(O)c2cc(OC)c(OC)c(OC)c2[C@H](c2cc(OC)c(OC)c(OC)c2)C1C(=O)OC (stereo partly drawn)	> 100	83.9	68.3 µM	–	> 100 µM	> 100	> 100 µM	> 100 µM	–	87.1 µM	–	–	–	–	–	–	–	–	–	–
CCOC(=O)/C(O)=C(/c1n[nH]c(=O)c2ccccc12)[N+](=O)[O-]	> 100	> 100	> 100 µM	–	> 100 µM	> 100	> 100 µM	> 100 µM	–	> 100 µM	–	–	–	–	–	–	–	–	–	–
CC1(C)COC(C23C4C5C2C2C3C4C52I)=N1 (stereo not drawn)	> 100	> 100	> 100 µM	–	> 100 µM	> 100	–	> 100 µM	–	> 100 µM	–	–	–	–	–	–	–	–	–	–
[O-]c1c2c(nn1-c1ccccc1)c1ccccc1c[n+]2Cc1ccccc1	> 100	> 100	> 100 µM	–	> 100 µM	> 100	> 100 µM	> 100 µM	–	> 100 µM	–	–	–	–	–	–	–	–	–	–
COc1ccc2c(c1)C(=O)/C(=C/c1cccc(OCC(=O)Nc3nc4c(s3)CCCC4)c1)O2	2.79	3.44	> 100 µM	10.1	2.07 µM	0.101	0.066 µM	> 100 µM	1.22 µM	–	–	2.28	0.805	0.0544	0.863	1.47	1.83	0.93	0.0248	0.499
CC(=O)[CH-]C(=O)c1ccccc1.CC(=O)[CH-]C(=O)c1ccccc1.CC[O-].CC[O-].[Zr+4]	> 100	> 100	> 100 µM	–	> 100 µM	> 100	> 100 µM	> 100 µM	–	> 100 µM	> 100	–	> 100	> 100	69.7	> 100	> 100	> 100	> 100	–
CC1=C[C@H]2c3c(c(O)c(O)c4oc5c(C)cccc5c(=O)c34)[C@H](c3cc(O)c(O)c4oc5c(C)cccc5c(=O)c34)[C@H]2C(C)(C)C1	10.7	3.47	31 µM	9.19	10 µM	2.78	2.22 µM	10.4 µM	14.9 µM	–	–	1.93	1.93	1.23	0.65	2.31	1.45	1.06	0.966	3.13
CCCCCCCCCCCCCC(=O)O[C@H]1CC[C@H](NC(=O)[C@H](OC)[C@H](O)[C@@H](O)[C@H](O)/C=C/C(C)C)C(=O)NC1	–	–	16.9 µM and 14.5 µM	–	11.2 µM and 12.8 µM	22	9.4 µM and 1.15 µM	8.44 µM and 10.7 µM	34.6 µM and > 100 µM	11.6 µM and 10.2 µM	–	0.0112	–	0.00883	–	–	–	–	–	0.00512
O=S(=O)(O)O.[NH-]C1CCCCC1[NH-].[Pt+2] (stereo not drawn)	> 100	> 100	> 100 µM	–	> 100 µM	> 100	> 100 µM	> 100 µM	–	> 100 µM	48.6	–	5.33	> 100	17.6	47.8	> 100	8.95	> 100	–
O=S1c2ccccc2N=C(c2ccc3ccccc3c2)CC1C1=CC=CCC1 (stereo not drawn)	42.6	26.2	40.5 µM	–	36.7 µM	26.7	30.8 µM	23.6 µM	–	36.9 µM	–	–	–	–	–	–	–	–	–	–
Cc1cc(NS(=O)(=O)c2ccc(N=Nc3cc(N=Nc4ccc(S(=O)(=O)Nc5cc(C)nc(C)n5)cc4)c4c(NC(=O)C(Cl)Cl)cccc4c3OC(=O)C(Cl)Cl)cc2)nc(C)n1 (tested in a mixture with another compound)	56.7	35.8	> 100 µM	–	40.4 µM	37.4	34.3 µM	–	–	–	–	–	–	–	–	–	–	–	–	–
Cc1c(Cl)ccc2c1NC(=O)C2(O)C(C(=O)c1ccccc1)c1ccccc1 (stereo not drawn)	> 100	> 100	76.7 µM	–	> 100 µM	> 100	> 100 µM	73.8 µM	–	69 µM	–	–	–	–	–	–	–	–	–	–
Cc1ccc(NC(=O)C(=O)C2C(=O)N(c3ccccc3)N=C2N)cc1C (stereo not drawn)	> 100	> 100	> 100 µM	–	> 100 µM	> 100	–	> 100 µM	–	> 100 µM	–	–	–	–	–	–	–	–	–	–
Cc1[nH]c2ccccc2c1C1Cc2ccccc2N1C(=O)/C=C/C=C/c1ccccc1 (stereo not drawn)	> 100	> 100	> 100 µM	–	> 100 µM	> 100	> 100 µM	> 100 µM	–	> 100 µM	–	–	–	–	–	–	–	–	–	–
CC1=NN(c2ccccc2)C(=O)C1N=Nc1ccc([As](=O)(O)O)c(O)c1 (stereo not drawn)	> 100	–	> 100 µM	> 100	> 100 µM	> 100	> 100 µM	92.6 µM	> 100 µM	> 100 µM	–	–	–	–	–	–	–	–	–	–
